Converted amounts (≈) assume the structure as drawn. Structures can show the parent of a compound that is named as a salt. Where two headings read alike, the source gives them in different places.
How the values were obtained:
[1] = system: C. perfringens (ATCC 13124); assay: microbe, parasite or virus in culture; format: cell-based; conditions: Clostridium perfringens, ATCC13124, 24 h
C. sporogenes ATCC 19404 = assay: Antianaerobic activity, MIC by standard broth dilution method (Table II); format: cell-based; conditions: Clostridium sporogenes, ATCC19404, 24 h, read-out: Minimal Inhibitory Concentration (MIC)
Experimental: (§1) The activity of the compounds identified in the Table II below was tested for antianaerobic activity against one strain of Bacteroides fragilis, one strain of Bacteroides uniformis, one strain of Clostridium sporogenes and one strain of Trichomonas vaginalis as the test organism. The methods used involved determining the minimum inhibitory concentration by the standard broth dilution method. The values for metronidazole (2-methyl-5-nitro-1H-imidazole-1-ethanol) are given above for reference purposes. For convenience the compounds are referred to by an internal reference number (an HC number) and this is correlated with the number of the Example wherein its production is described.

candida albicans = assay: Oral treatment: recovery of viable candida albicans from the kidneys of infected mice; format: in vivo
Description: Effect of oral treatment with HC274, HC316, HC390, HC415 and Ketoconazole on the recovery of viable candida albicans from the kidneys of infected mice.

T. vaginalis ATCC 30001 = assay: Antianaerobic activity, MIC by standard broth dilution method (Table II); format: cell-based; conditions: Trichomonas vaginalis, ATCC30001, 24 h, read-out: Minimal Inhibitory Concentration (MIC)
Experimental: as §1, with “The values for metronidazole (2-methyl-5-nitro-1H-imidazole-1-ethanol) are given above for reference purposes.” left out

B. uniformis ATCC 8492 = assay: as above; format: cell-based; conditions: Bacteroides uniformis, ATCC8492, 24 h, read-out: Minimal Inhibitory Concentration (MIC)
Experimental: as §1, with “The values for metronidazole (2-methyl-5-nitro-1H-imidazole-1-ethanol) are given above for reference purposes.” left out

B. fragilis ATCC 23745 = assay: as above; format: cell-based; conditions: Bacteroides fragilis, ATCC23745, 24 h, read-out: Minimal Inhibitory Concentration (MIC)
Experimental: as §1, with “The values for metronidazole (2-methyl-5-nitro-1H-imidazole-1-ethanol) are given above for reference purposes.” left out

in vivo = conditions: male mice, 7 day
[2] = system: Desulfovibrio desulfuricans API-BREWER; assay: Minimal inhibitory concentration against anaerobic bacteria; conditions: 24 h
[3] = system: Bacteroides uniformis ATCC 8492; assay: as above; conditions: ATCC8492, 24 h
[4] = system: Desulfovibrio desulfuricans API-CORE; assay: as above; conditions: 24 h
[5] = system: Desulfovibrio desulfuricans API-SW2; assay: as above; conditions: for Minimal Inhibitory Concentration: 24 hours at 37° C.
[6] = system: Bacteroides fragilis ATCC 23745; assay: as above; conditions: ATCC23745, 24 h
[7] = system: Clostridium sporogenes ATCC 19404; assay: as above; format: cell-based; conditions: ATCC19404, 24 h
[8] = read-out: Minimal Inhibitory Concentration, Test 1, 24 hours at 37° C.
[9] = read-out: Minimal Inhibitory Concentration, Test 2, 24 hours at 37° C.
[10] = read-out: Minimal Inhibitory Concentration, Test 3, 24 hours at 37° C.

With Cl.Clc1ccc(NN=C(Cn2ccnc2)c2ccccc2Cl)c(Cl)c1 [HC316, 1-(2-Chlorophenyl)-2-(1H-imidazol-1-yl)ethanone, 2,4-dichlorophenylhydrazone, hydrochloride] the MIC [1] was 0.8 µg/mL, the MIC (C. sporogenes ATCC 19404; Test 1) was 1 µg/mL and the MIC (C. sporogenes ATCC 19404; Test 2) was 2.5 µg/mL. For the same molecule, the MIC (C. sporogenes ATCC 19404; Test 3) was 2.5 µg/mL, the “Recovery of C.albicans (as percentage of control)” value (candida albicans; 5 mg/kg) was 56.2 percentage of control and the “Recovery of C.albicans (as percentage of control)” value (candida albicans; 20 mg/kg) was 46.5 percentage of control. It also gave an MIC (T. vaginalis ATCC 30001; Test 1) of 50 µg/mL, an MIC (T. vaginalis ATCC 30001; Test 2) of 50 µg/mL and an MIC (T. vaginalis ATCC 30001; Test 3) of 50 µg/mL. For the same molecule, the MIC (B. uniformis ATCC 8492; Test 1) was 2.5 µg/mL, the MIC (B. uniformis ATCC 8492; Test 2) was 2.5 µg/mL and the MIC (B. uniformis ATCC 8492; Test 3) was 2.5 µg/mL. For the same molecule, the MIC (B. fragilis ATCC 23745; Test 1) was 2.5 µg/mL, the MIC (B. fragilis ATCC 23745; Test 2) was 2.5 µg/mL and the MIC (B. fragilis ATCC 23745; Test 3) was 2.5 µg/mL.

Clc1ccc(/C(Cn2ccnc2)=N/Nc2c(Cl)cccc2Cl)s1 [HC390, (E)-1-(5-chlorothienyl-2-yl)-2-(1H-imidazol-1-yl)ethanone, 2,6-dichlorophenylhydrazone, hydrochloride] showed an MIC [1] of 3.1 µg/mL, an MIC (C. sporogenes ATCC 19404; Test 1) of 2.5 µg/mL and an MIC (C. sporogenes ATCC 19404; Test 2) of 5 µg/mL. For the same molecule, the MIC (C. sporogenes ATCC 19404; Test 3) was 7.5 µg/mL, the LD50 at 168 h (in vivo; mouse, in vivo, ip, read-out: LD50) was 610 mg/kg and the LD12.5 (in vivo; p.o.) was > 1500 mg/kg. The “Recovery of C.albicans (as percentage of control)” value (candida albicans; 5 mg/kg) was 57.3 percentage of control, the “Recovery of C.albicans (as percentage of control)” value (candida albicans; 20 mg/kg) was 41.1 percentage of control and the MIC (T. vaginalis ATCC 30001; Test 1) was > 50 µg/mL. For the same molecule, the MIC (T. vaginalis ATCC 30001; Test 2) was > 50 µg/mL, the MIC (T. vaginalis ATCC 30001; Test 3) was > 50 µg/mL and the MIC (B. uniformis ATCC 8492; Test 1) was 2.5 µg/mL. For the same molecule, the MIC (B. uniformis ATCC 8492; Test 2) was 2.5 µg/mL, the MIC (B. uniformis ATCC 8492; Test 3) was 2.5 µg/mL and the MIC (B. fragilis ATCC 23745; Test 1) was 5 µg/mL. It also gave an MIC (B. fragilis ATCC 23745; Test 2) of 2.5 µg/mL and an MIC (B. fragilis ATCC 23745; Test 3) of 2.5 µg/mL.

For Cc1ncc([N+](=O)[O-])n1CCO [Metronidazole, 2-methyl-5-nitro-1H-imidazole-1-ethanol, reference compound], the MIC [2, 8] was 0.5 µg/mL (≈ 2.92 µM), the MIC [2, 9] was 0.5 µg/mL (≈ 2.92 µM) and the MIC [2, 10] was 0.5 µg/mL (≈ 2.92 µM). For the same molecule, the MIC [3, 8] was 0.5 µg/mL (≈ 2.92 µM), the MIC [3, 9] was 0.25 µg/mL (≈ 1.46 µM) and the MIC [3, 10] was 0.25 µg/mL (≈ 1.46 µM). For the same molecule, the MIC [4, 8] was 0.5 µg/mL (≈ 2.92 µM), the MIC [4, 9] was 0.25 µg/mL (≈ 1.46 µM) and the MIC [4, 10] was 0.25 µg/mL (≈ 1.46 µM). The MIC [1] was 0.3 µg/mL (≈ 1.75 µM), the MIC ([5]; Desulfovibrio desulfuricans, APISW2, 24 h, read-out: Minimal Inhibitory Concentration) was 0.25 µg/mL (≈ 1.46 µM) and the “Minimal Inhibitory Concentration” value ([5]; Test 2) was 0.25 mg/L. The “Minimal Inhibitory Concentration” value ([5]; Test 3) was 0.25 mg/L, the MIC [6, 8] was 0.75 µg/mL (≈ 4.38 µM) and the MIC [6, 9] was 0.75 µg/mL (≈ 4.38 µM). For the same molecule, the MIC [6, 10] was 0.5 µg/mL (≈ 2.92 µM), the MIC ([7]; Test 1, 24 hours at 37° C.) was 0.5 µg/mL (≈ 2.92 µM) and the MIC ([7]; Test 2, 24 hours at 37° C.) was 0.25 µg/mL (≈ 1.46 µM). For the same molecule, the MIC ([7]; Test 3, 24 hours at 37° C.) was 0.75 µg/mL (≈ 4.38 µM).

Reference: US4351948A, “Imidazole hydrazone derivatives” (priority 1980, dated 1982)
